The target in test [1] is Kes1 (Kes1/Osh4) (Saccharomyces cerevisiae, UniProt P35844, K242E/K243E/R236E). In words: [3H]-cholesterol saturation binding, sterol:detergent micelle assay.
Test [2] has as its target Kes1 (Kes1/Osh4) (Saccharomyces cerevisiae, UniProt P35844). The description is as above.

What is called Kd is a measure of binding affinity in units of concentration. The low end stands for a tighter complex, the high end for a looser complex. Take `CC(C)CCC[C@@H](C)[C@H]1CC[C@H]2[C@@H]3CC=C4C[C@@H](O)CC[C@]4(C)[C@H]3CC[C@]12C` [[^3H]-Cholesterol]: the Kd on Kes1 (Kes1/Osh4) [1] and on Kes1 (Kes1/Osh4) [2] was 500 to 800 nM throughout.

(Values after paper PMC3285437 (Cell, 2012).)
